Data from the supplement of paper PMC5908809.

Columns and labels:
[1] = system: normal NK cells expanded with K562-aAPC; assay: drug sensitivity score (DSS) (DSS units); higher = more sensitive; extreme values may be limits of the assay; conditions: 72 h; IL-2 2.5 ng/mL
Experimental: (§1)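 Drug sensitivity and resistance testing on K562-aAPC-expanded normal NK cells: 5 concentrations (10-fold steps over a 10,000-fold range), 72 h at 37 °C, viability by CellTiter-Glo normalised to DMSO and benzethonium chloride controls; DSS from the fitted curve.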

[2] = system: normal primary NK cells, pool 1 (3 donors), resting (IL-2 0 ng/mL); assay: percent inhibition of viability; higher = more inhibition; conditions: 72 h
[3] = system: normal primary NK cells, pool 1 (3 donors) (IL-2 2.5 ng/mL); assay: as above; conditions: 72 h
KAI3 (IL-2 2.5 ng/mL) [4] = assay: as above; conditions: 72 h
YT (IL-2 2.5 ng/mL) [5] = assay: as above; conditions: 72 h
NKL (IL-2 2.5 ng/mL) [6] = assay: as above; conditions: 72 h
NK-92 (IL-2 2.5 ng/mL) [7] = assay: as above; conditions: 72 h
DERL-7 (IL-2 2.5 ng/mL) [8] = assay: as above; conditions: 72 h
[9] = system: normal primary NK cells, pool 2 (3 donors) (IL-2 2.5 ng/mL); assay: as above; conditions: 72 h
[10] = system: normal primary NK cells, pool 3 (3 donors) (IL-2 2.5 ng/mL); assay: as above; conditions: 72 h
NK-YS (IL-2 2.5 ng/mL) [11] = assay: as above; conditions: 72 h
SNK-6 (IL-2 2.5 ng/mL) [12] = assay: as above; conditions: 72 h
KHYG-1 (IL-2 2.5 ng/mL) [13] = assay: as above; conditions: 72 h
IMC-1 (IL-2 20 ng/mL) [14] = assay: as above; conditions: 72 h
[15] = system: normal NK cells expanded with K562-aAPC; assay: as above; conditions: 72 h, IL-2 2.5 ng/mL
Experimental: as §1

[16] = system: normal primary NK cells, pool 1 (3 donors), resting (IL-2 0 ng/mL); assay: drug sensitivity score (DSS) (DSS units); higher = more sensitive; extreme values may be limits of the assay; conditions: 72 h
[17] = system: normal primary NK cells, pool 1 (3 donors) (IL-2 2.5 ng/mL); assay: as above; conditions: 72 h
KAI3 (IL-2 2.5 ng/mL) [18] = assay: as above; conditions: 72 h
YT (IL-2 2.5 ng/mL) [19] = assay: as above; conditions: 72 h
NKL (IL-2 2.5 ng/mL) [20] = assay: as above; conditions: 72 h
NK-92 (IL-2 2.5 ng/mL) [21] = assay: as above; conditions: 72 h
DERL-7 (IL-2 2.5 ng/mL) [22] = assay: as above; conditions: 72 h
[23] = system: normal primary NK cells, pool 2 (3 donors) (IL-2 2.5 ng/mL); assay: as above; conditions: 72 h
[24] = system: normal primary NK cells, pool 3 (3 donors) (IL-2 2.5 ng/mL); assay: as above; conditions: 72 h
NK-YS (IL-2 2.5 ng/mL) [25] = assay: as above; conditions: 72 h
SNK-6 (IL-2 2.5 ng/mL) [26] = assay: as above; conditions: 72 h
KHYG-1 (IL-2 2.5 ng/mL) [27] = assay: as above; conditions: 72 h
IMC-1 (IL-2 20 ng/mL) [28] = assay: as above; conditions: 72 h

CN(c1ncccc1CNc1nc(Nc2ccc3c(c2)CC(=O)N3)ncc1C(F)(F)F)S(C)(=O)=O (max concentration tested 10000 nM)
Conditions | drug sensitivity score
DERL-7 (IL-2 2.5 ng/mL) [22] | 8
IMC-1 (IL-2 20 ng/mL) [28] | 5.8
KAI3 (IL-2 2.5 ng/mL) [18] | 7.77
KHYG-1 (IL-2 2.5 ng/mL) [27] | 10.8
NK-92 (IL-2 2.5 ng/mL) [21] | 5.49
NK-YS (IL-2 2.5 ng/mL) [25] | 9.57
NKL (IL-2 2.5 ng/mL) [20] | 8.95
SNK-6 (IL-2 2.5 ng/mL) [26] | 3.56
YT (IL-2 2.5 ng/mL) [19] | 9.01
[1] | 6.5
[16] | 3.17
[17] | 7.02
[23] | 4.9
[24] | 4.64

percent inhibition of viability [%]
Conditions | 1 nM | 10 nM | 100 nM | 1000 nM | 10000 nM
DERL-7 (IL-2 2.5 ng/mL) [8] | -3.04 | -1.94 | -4.92 | 14.9 | 99.9
IMC-1 (IL-2 20 ng/mL) [14] | -1.02 | -1.57 | 1.51 | 2.71 | 97.8
KAI3 (IL-2 2.5 ng/mL) [4] | -4.38 | -3.17 | -1.99 | 15.1 | 94.9
KHYG-1 (IL-2 2.5 ng/mL) [13] | 1.46 | -1.82 | -1.38 | 42.5 | 95.7
NK-92 (IL-2 2.5 ng/mL) [7] | -15.3 | -22 | -13 | 1.77 | 94.6
NK-YS (IL-2 2.5 ng/mL) [11] | 1.14 | -3.29 | -8.54 | 31.5 | 92.8
NKL (IL-2 2.5 ng/mL) [6] | -0.23 | -12.4 | -5.82 | 24.1 | 95
SNK-6 (IL-2 2.5 ng/mL) [12] | 8.22 | -2.6 | -15.8 | 2.42 | 59.8
YT (IL-2 2.5 ng/mL) [5] | 2.65 | -2.39 | -3.31 | 24.6 | 95.2
[2] | -20.5 | -23.2 | -40 | -70.9 | 88.9
[3] | -2.69 | -13.7 | -10.8 | 10 | 97.2
[9] | -12.4 | -9.66 | -11.1 | -4.87 | 94.8
[10] | -12.7 | -6.19 | -9.86 | -12.6 | 97.7
[15] | -0.87 | -5.24 | -0.38 | 6.43 | 99.8

COc1cc2c(Nc3ccc(Cl)c(Cl)c3F)ncnc2cc1OC[C@@H]1C[C@@H]2CN(C)C[C@@H]2C1 [XL-647] (max concentration tested 1000 nM)
Conditions | drug sensitivity score
DERL-7 (IL-2 2.5 ng/mL) [22] | 3.48
IMC-1 (IL-2 20 ng/mL) [28] | 0
KAI3 (IL-2 2.5 ng/mL) [18] | 4.2
KHYG-1 (IL-2 2.5 ng/mL) [27] | 0.5
NK-92 (IL-2 2.5 ng/mL) [21] | 4.71
NK-YS (IL-2 2.5 ng/mL) [25] | 2.37
NKL (IL-2 2.5 ng/mL) [20] | 5.6
SNK-6 (IL-2 2.5 ng/mL) [26] | 0
YT (IL-2 2.5 ng/mL) [19] | 1.99
[1] | 3.02
[16] | 5.88
[17] | 3.29
[23] | 1.68
[24] | 0.47

percent inhibition of viability [%]
Conditions | 0.1 nM | 1 nM | 10 nM | 100 nM | 1000 nM
DERL-7 (IL-2 2.5 ng/mL) [8] | 2.38 | 4.2 | 2.43 | 5.16 | 49.9
IMC-1 (IL-2 20 ng/mL) [14] | -7 | -0.32 | 0.43 | -6.58 | 6.29
KAI3 (IL-2 2.5 ng/mL) [4] | -2.77 | -5.01 | 0.66 | 13.1 | 44
KHYG-1 (IL-2 2.5 ng/mL) [13] | -6.79 | -7.9 | -4.38 | -1 | 19.7
NK-92 (IL-2 2.5 ng/mL) [7] | 2.48 | -1.64 | 0.32 | 10.1 | 56.2
NK-YS (IL-2 2.5 ng/mL) [11] | -8.01 | -7.74 | -6.62 | 1.82 | 42.2
NKL (IL-2 2.5 ng/mL) [6] | -12.1 | -2.96 | 0.78 | 18.2 | 55.1
SNK-6 (IL-2 2.5 ng/mL) [12] | 17.2 | -16.8 | -17.2 | -22.1 | 3.73
YT (IL-2 2.5 ng/mL) [5] | -6.35 | -3.87 | -2.73 | 5.21 | 28.1
[2] | -0.45 | 21.2 | 8.11 | 17.6 | 64.4
[3] | 0.18 | 15.8 | 5.17 | 13.4 | 36.7
[9] | -4.62 | 6.47 | 1.95 | -3.8 | 39.6
[10] | -9.94 | 18.6 | 6.02 | -4.74 | 21.1
[15] | -7 | -6.81 | -2.66 | 7.59 | 37.1
